These results are taken from patent US20090317372A1, “SMALL MOLECULES FOR THE REDUCTION OF HIGH BLOOD GLUCOSE LEVEL” (priority 2008, published 2009).

Common to all, as to assay type: in vivo
The test system of experiment [1] is C57/BL/6 mice. The experiment can be described thus: Glucose tolerance test with normal mice (CC1, CC3, CC19). The settings on record: for Reduction of blood glucose level: 30th min of test period. Here is the method: C57/BL/6 female mice weighing 22-23-g and fasted for 14 hours before intraperitoneal (i.p.) administration of glucose (3-g/kg) were used. None of the animals received any food during the experiment other than glucose. The animals received i.p. injections of 4.5-mg/kg of CCcompound1, CCcompound3, or CCcompound19 either 1 hour or 24 hours prior to glucose administration as indicated in TABLE 3. Blood samples were taken from the eyes (canthus), and glucose concentrations in whole blood samples were immediately measured with the Fast Glucose C test. Each group included six animals. The data, shown in TABLE 3, are the mean±std. dev. of 6 determinations, i.e. one determination with each of the six animals. In this and all subsequent experiments the values at 0 min reflect glucose concentration in blood samples collected 1-5 minutes prior to the administration of glucose.

A further experiment relates to Wistar rats. The experiment can be described thus: Glucose tolerance test in starved rats. Here is the method:
Male Wistar rats weighing 240-270-g were divided into 3 groups, each group consisting of 6 or 7 animals. To ensure standard conditions animals were starved for 14 hours before the start of the experiment. CCcompound1 and CCcompound3 were injected (i.p.) 30 min prior to injecting 3-g/kg of glucose (i.p.). Blood sugar values of the experimental animals were measured with the Fast Glucose C-test; blood samples were taken from the tail. The data are the mean±std. dev. of 6-7 determinations, i.e. one determination with each of the 6-7 animals in the respective groups.

Experiment [2] has as its system ob/ob mice. The experiment can be described thus: Blood glucose level of normally fed ob/ob obese diabetic mice, daily treatment. The conditions noted are these: second experiment. The text has this: Adult female leptin-deficient ob/ob obese diabetic inbred specified pathogen free (SPF) hygienic category mice from Charles River VRF1 were used for these experiments. The mice weighed 32-36-g at arrival. The ob/ob obese mouse is an extensively used animal model for the study of non-insulin-dependent-diabetes mellitus (NIDDM). The mutation was propagated in the C57BL/6J (BL/6) inbred strain. Homozygous obese (ob/ob) animals developed hyperglycemia due to insulin resistance, hyperinsulinemia (to compensate for reduced insulin action), and obesity. In these animals gluconeogenesis is enhanced despite their hyperinsulinemic state. The animals were kept in macrolon cages at 22-24° C. and 50-60% humidity, with lighting regimen of 12/12 h light dark. They had free access to tap water and were fed a sterilized standard diet (Charles River VRF1, autoclavable). The animals were cared for according to the “Guiding Principles for the Care and Use for Animals” based upon the Helsinki declaration. The ob/ob mice gained weight rapidly and developed a marked obesity by 5-6 weeks of age. […] When arrived they were 5 weeks old (when the experiment was performed with CCcompound1) or 4.5 weeks old (when the experiment was performed with CCcompound3 and CCcompound19). The treatments started 8 days later in the experiment performed with CCcompound1 and 10 days later in the experiment performed with CCcompound3 and CCcompound19. Experimental groups selected from ob/ob mice were injected subcutaneously (s.c.) at regular intervals once daily for 14 days with CCcompound1 or an analog (CCcompound3 or CCcompound19) each at the dose of 4.5-mg per kg. Control groups were also selected from ob/ob mice that remained untreated during the entire length of the experiment. In the first experiment, for which the data is presented in TABLE 11, blood samples were taken either 45 min or 6 hours after treatments with CCcompound1. In the second experiment, for which the data is presented in TABLE 12, blood samples were taken 45 min after treatments with the analogs of CCcompound1. Blood glucose was determined with the Fast Glucose C test. Both the untreated and CC compound-treated groups included 5 animals. The data are the mean±std. dev.

Experiment [3] deals with ob/ob mice. The experiment can be described thus: Blood glucose in ob/ob mice, CCcompound1 combined with human proteins AGP and TF. The protocol: For each experimental group, ob/ob mice were chosen (5 mice in each group) that were 43 days old and weighed on average 40.3±1.9-g on the first day of experiment. Three groups of mice were treated with s.c. injection of 4.5-mg/kg CCcompound1 once every day for 17 days. Mice in one of these CCcompound1-treated groups received no other treatment, and their blood was drawn for glucose analysis on day 14 and 17 exactly 45 min after treatment. The second CCcompound1-treated group also received 0.5-mg/mouse (˜11 mg/kg) dose of greater than 98% pure commercial human transferrin [catalogue number, T 3309 according to 2004/2005 Sigma catalogue]. In this second group the blood was drawn on day 14 just prior to TF administration and on day 17 two hours after TF and 45 min after CCcompound1 administration. An additional group of animals received only TF treatment. The third CCcompound1-treated group also received 1.2-mg/mouse (26.6-mg/kg) dose of >99% pure human AGP [catalogue number G 9885 according to 2004/2005 Sigma catalogue]; in this group the blood was drawn on day 14 just prior to AGP administration and on day 17 two hours and 45 minutes after administration of AGP and CCcompound1, respectively. An additional group of animals received only AGP treatment, and yet another group of animals received no treatment at all. On day 1, prior to any treatment, the blood glucose level of all animals was in the range of 7.2-7.9 mM.

The subject of experiment [4] is C57/BL/6 mice. Put plainly: Glucose tolerance test with normal mice, CCcompound1 and sub-optimal insulin. The settings on record: CCcompound1 4.5-mg/kg i.p. 60 min and/or insulin 0.02 IU 15 min prior to glucose. Here is the method:
In this experiment, a sub-optimal dose of insulin (0.02 international unit-IU) was used to probe if CCcompound1 indeed can enhance the effect of insulin on blood glucose. Again C57/BL/6 female mice weighing 22-23-g and fasted for 14 hours prior to i.p. glucose administration (3-g/kg), were used. None of the animals received any food during the experiment other than glucose. The animals received i.p. injections of 4.5-mg/kg of CCcompound1 and/or 0.02 Unit insulin 60 min and 15 min prior to glucose administration, respectively. Blood samples were taken and glucose concentrations measured as indicated earlier. Each group included six animals. The data are the mean±std. dev. of 6 determinations, i.e. one determination with each of the six animals.

Experiment [5] has as its system BDF1 (C57/BL/6 female×DBA/2 male) mice. Put plainly: Glucose tolerance test with BDF1 mice, CCcompound1 and sub-optimal insulin. The conditions noted are these: CCcompound1 4.5-mg/kg i.p. −15 min and/or insulin 0.02 IU −10 min. The protocol: In this experiment again, a sub-optimal dose of insulin was used to probe if CCcompound1 can enhance the effect of insulin on blood glucose. This time first generation hybrid BDF1 (C57/BL/6 female×DBA/2 male) adult (10-12 weeks old) male mice weighing 28-30-g and fasted for 14 hours before i.p. glucose administration (3-g/kg) were used. These mice were […] than mice in the previous experiment described under Example 5. None of the animals received any food during the experiment other than glucose. The animals received i.p. injections of 4.5-mg/kg of CCcompound1 and 0.02 IU of insulin 15 min and 10 min prior to glucose administration. Blood samples were taken and glucose concentrations in whole blood samples determined as described earlier. Each group included six animals. The data are the mean±std. dev. of 6 determinations, i.e. one determination with each of the six animals.

Setting [6] is: 4.5-mg/kg i.p. 1 h prior to glucose 3-g/kg i.p., 0 min.
The mark [7] stands for this setting: 4.5-mg/kg i.p. 1 h prior to glucose.
Setting [8] is: 4.5-mg/kg i.p. 1 h prior to glucose, 30 min.
The mark [9] stands for this setting: 4.5-mg/kg i.p. 1 h prior to glucose, 60 min.
Setting [10] is: 4.5-mg/kg i.p. 1 h prior to glucose, 120 min.
[11] abbreviates: 4.5-mg/kg i.p. 1 h prior to glucose, 180 min.
[12] abbreviates: 4.5-mg/kg s.c. once daily, 45 min after treatment, day 1.
Setting [13] is: 4.5-mg/kg s.c. once daily, day 0.
Setting [14] is: 14th day, CC1 4.5-mg/kg s.c. daily, 45 min after treatment, blood drawn just prior to AGP or TF administration.
Where [15] appears, read: 17th day, 45 min after CC1 4.5-mg/kg s.c., two hours after TF 0.5-mg/mouse or AGP 1.2-mg/mouse.

Consider `CC[N+](C)(CC)CCOCc1ccc2sc3ccccc3c(=O)c2c1` [CCcompound 3], for which the Blood glucose in the experiment on C57/BL/6 mice [1] (setting [6]) was 1.7 ± 0.5 mM; with C57/BL/6 mice [1] (setting [8]), 6.6 ± 0.3 mM; in the experiment with C57/BL/6 mice [1] (setting [9]) it was 5.0 ± 0.2 mM; with C57/BL/6 mice [1] (setting [10]) it was 3.6 ± 0.5 mM; with C57/BL/6 mice [1] (setting [11]), 2.7 ± 0.4 mM; with Wistar rats (rats starved 14 h, i.p. 30 min prior to glucose 3-g/kg i.p., 0 min) it was 4.73 ± 0.24 mM. Besides, the Blood glucose with Wistar rats (rats, i.p. 30 min prior to glucose, 30 min) is given as 9.36 ± 0.43 mM; in the experiment on Wistar rats (rats, i.p. 30 min prior to glucose, 60 min), 6.66 ± 0.33 mM; in the experiment on Wistar rats (rats, i.p. 30 min prior to glucose, 90 min), 5.71 ± 0.38 mM; in the experiment with Wistar rats (rats, i.p. 30 min prior to glucose, 120 min), 5.43 ± 0.60 mM; with ob/ob mice [2] (setting [12]) it was 7.6 ± 0.7 mM; in the experiment on ob/ob mice [2] (setting [13]), 9.1 ± 0.6 mM. The Blood glucose with ob/ob mice [2] (45 min after treatment, day 5) is listed as 8.6 ± 0.9 mM; with ob/ob mice [2] (45 min after treatment, day 10) it was 11.0 ± 0.6 mM; with ob/ob mice [2] (45 min after treatment, day 15) it was 12.6 ± 0.5 mM. In addition, the “Reduction of blood glucose level” value with C57/BL/6 mice [1] (setting [7]) was found to be 19%.
With `C[N+](C)(C)CCC=C1c2ccccc2Sc2ccccc21.[I-]` [CCcompound 19, N,N,N-trimethyl-3-(9H-thioxanthen-9-ylidene)-propane-1-aminium iodide], the Blood glucose with C57/BL/6 mice [1] (setting [6]) is given as 2.1 ± 0.5 mM; in the experiment with C57/BL/6 mice [1] (setting [8]), 5.7 ± 0.4 mM; with C57/BL/6 mice [1] (setting [9]), 4.6 ± 0.6 mM; in the experiment on C57/BL/6 mice [1] (setting [10]), 3.1 ± 0.2 mM; in the experiment on C57/BL/6 mice [1] (setting [11]), 2.2 ± 0.4 mM; with ob/ob mice [2] (setting [12]) it was 6.2 ± 0.9 mM. Besides, the Blood glucose was 9.3 ± 0.7 mM with ob/ob mice [2] (setting [13]); 7.7 ± 0.5 mM in the experiment on ob/ob mice [2] (45 min after treatment, day 5); 9.3 ± 0.9 mM in the experiment on ob/ob mice [2] (45 min after treatment, day 10); 10.4 ± 1.0 mM in the experiment on ob/ob mice [2] (45 min after treatment, day 15). The “Reduction of blood glucose level” value with C57/BL/6 mice [1] (setting [7]) was 23%.
Take “AGP: >99% pure human α1-acid glycoprotein, Sigma G 9885”: the Blood glucose level in the experiment with ob/ob mice [3] (setting [14]) is 16.0 ± 0.5 mM; in the experiment on ob/ob mice [3] (setting [15]), 12.4 ± 0.6 mM.
On to “Insulin: insulin, sub-optimal dose 0.02 IU [reference compound]”, for which the Blood glucose is 2.1 ± 0.6 mM in the experiment with C57/BL/6 mice [4] (0 min); 7.2 ± 0.4 mM in the experiment with C57/BL/6 mice [4] (30 min); 5.6 ± 0.5 mM in the experiment with C57/BL/6 mice [4] (60 min); 3.8 ± 0.4 mM in the experiment with C57/BL/6 mice [4] (120 min); 3.1 ± 0.4 mM in experiment [5] (0 min); 6.4 ± 0.5 mM in experiment [5] (30 min). This compound displayed a Blood glucose in experiment [5] (60 min) of 5.6 ± 0.3 mM.
In the case of “TF: greater than 98% pure commercial human transferrin, Sigma T 3309”, the Blood glucose level with ob/ob mice [3] (setting [14]) amounted to 15.8 ± 0.4 mM; in the experiment with ob/ob mice [3] (setting [15]) it was 13.6 ± 0.7 mM.
